Experimental data taken from US12404232B2, “Compounds and compositions for intracellular delivery of therapeutic agents” (ModernaTX, Inc., priority 2015, dated 2025).

Legend:
[1] = Encapsulation of RNA by the nanoparticle composition (QUANT-IT RIBOGREEN RNA assay); assay type: physicochemical
From the text: The efficiency of encapsulation of a therapeutic and/or prophylactic describes the amount of therapeutic and/or prophylactic that is encapsulated or otherwise associated with a nanoparticle composition after preparation, relative to the initial amount provided. The encapsulation efficiency is desirably high (e.g., close to 100%). The encapsulation efficiency may be measured, for example, by comparing the amount of therapeutic and/or prophylactic in a solution containing the nanoparticle composition before and after breaking up the nanoparticle composition with one or more organic solvents or detergents. Fluorescence may be used to measure the amount of free therapeutic and/or prophylactic (e.g., RNA) in a solution. For the nanoparticle compositions described herein, the encapsulation efficiency of a therapeutic and/or prophylactic may be at least 50%, for example 50%, 55%, 60%, 65%, 70%, 75%, 80%, 85%, 90%, 91%, 92%, 93%, 94%, 95%, 96%, 97%, 98%, 99%, or 100%. In some embodiments, the encapsulation efficiency may be at least 80%. In certain embodiments, the encapsulation efficiency may be at least 90%.
For nanoparticle compositions including an RNA, a QUANT-IT™ RIBOGREEN® RNA assay (Invitrogen Corporation Carlsbad, CA) can be used to evaluate the encapsulation of an RNA by the nanoparticle composition. The samples are diluted to a concentration of approximately […] in a TE buffer solution (10 mM Tris-HCl, 1 mM EDTA, pH 7.5). 50 μL of the diluted samples are transferred to a polystyrene 96 well plate and either 50 μL of TE buffer or 50 μL of a 2% Triton X-100 solution is added to the wells. The plate is incubated at a temperature of 37° C. for 15 minutes. The RIBOGREEN® reagent is diluted 1:100 in TE buffer, and 100 μL of this solution is added to each well. The fluorescence intensity can be measured using a fluorescence plate reader (Wallac Victor 1420 Multilablel Counter; Perkin Elmer, Waltham, MA) at an excitation wavelength of, for example, about 480 nm and an emission wavelength of, for example, about 520 nm. The fluorescence values of the reagent blank are subtracted from that of each of the samples and the percentage of free RNA is determined by dividing the fluorescence intensity of the intact sample (without addition of Triton X-100) by the fluorescence value of the disrupted sample (caused by the addition of Triton X-100).
Initial studies were performed to compare the delivery efficiency of nanoparticle compositions including various compounds according to Formula (I), (IA), (II), (IIa), (IIb), (IIc), (IId) or (IIe). The cationic lipid MC3 is a current standard in the art. Accordingly, the standard MC3 formulation including about 50 mol % MC3, about 10 mol % DSPC, about 38.5 mol % cholesterol, and about 1.5 mol % PEG-DMG was used as a basis for this study. Nanoparticle compositions including DSPC as a phospholipid, cholesterol as a structural lipid, PEG-DMG as a PEG lipid, an RNA, and a compound according to Formula (I), (IA), (II), (IIa), (IIb), (IIc), (IId) or (IIe) selected from Compounds 1-159, 168-170, and 173-175 were prepared according to or via methods similar to those described in Examples 1 and 2. The ratios of the lipids were 50:10:38.5:1.5 mol % for the lipid according to Formula (I), (IA), (II), (IIa), (IIb), (IIc), (IId) or (IIe):DSPC:cholesterol:PEG-DMG. The RNA used was an mRNA encoding G5 luciferase (Luc) or G5 hEPO. Tables 1A-1B summarize the content and characteristics of the formulations. […]

mice [2] = assay: Cytokine induction (IL-6, IP-10) in mice after intravenous administration; assay type: in vivo; parameters: IL-6 / IP-10: unit not given here; settings: 0.5 mpk; for IL-6 / IP-10: 6 hours; for Cytokine expression (pg/ml) IL-6 (6 h) / Cytokine expression (pg/ml) IP-10 (6 h): hEPO mRNA
Outline: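 Nanoparticle compositions given intravenously to mice at 0.5 mpk; serum cytokine concentrations measured at 6 hours, with MC3 formulation and PBS as comparators.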

mice [3] = assay: hEPO expression in mice after intravenous administration; assay type: in vivo; settings: for hEPO expression (pg/ml) 3h / hEPO expression (pg/ml) 6 h / hEPO expression (pg/ml) 24 h: 0.5 mpk
Description: Sample formulations of nanoparticle compositions including different lipids are generally first evaluated according to Luc expression in vivo. The activity of several such compositions was further evaluated using an mRNA encoding hEPO. Nanoparticle compositions including Compounds 6, 18, 25, 30, 108-112, 60, and 122, or MC3 were prepared according to Example 2.
The expression of hEPO and cytokine induction in mice intravenously administered a nanoparticle composition at a dose of 0.5 mpk were measured at 3, 6, and 24 hours. […] The expression of hEPO in mice intramuscularly administered a nanoparticle composition from Table 1B at a dose of 0.01 mpk were measured at 3, 6, and 24 hours. […] (see also FIG. 9.)
Table 12 compares the nanoparticle compositions including compounds according to Formula (I), (IA), (II), (IIa), (IIb), (IIc), (IId) or (IIe) to the compositions including MC3 on the basis of expression and flux levels. […] Thus, these lipids may be useful in nanoparticle composition therapeutics. […]

Cynomolgus monkeys = assay: Anti-HA (anti-hemagglutinin) antibody expression in Cynomolgus monkeys after intravenous infusion; assay type: in vivo; settings: i.v. infusion 60 minutes
Description: Results of hEPO expression studies were validated using a standard MC3 formulation and a nanoparticle composition containing Compound 18 including an mRNA encoding an anti-hemagglutinin (anti-HA) antibody. Cynomolgus monkeys were administered a single dose of 0.1 mpk or 0.3 mpk of a nanoparticle composition containing Compound 18 (see Table 33; prepared according to Example 2) including an mRNA encoding anti-HA antibody via intravenous infusion for 60 minutes.

[4] = hEPO mRNA, (50:10:38.5:1.5) (Table 10)

| Structure (SMILES) | EE (%) ([1]; formulated with hEPO mRNA (Table 1B)) | EE (%) [1, 4] | EE (%) ([1]; nanoparticle composition 50:10:38.5:1.5 mol % (Table 1A)) | IL-6 (mice [2]) | IP-10 (mice [2]) | Cytokine expression (pg/ml) IL-6 (6 h) (mice [2]) | Cytokine expression (pg/ml) IP-10 (6 h) (mice [2]) | hEPO expression (pg/ml) 3h (mice [3]) | hEPO expression (pg/ml) 6 h (mice [3]) | hEPO expression (pg/ml) 24 h (mice [3]) | AUC (Cynomolgus monkeys; dose 0.1 mpk) | AUC (Cynomolgus monkeys; dose 0.3 mpk) | EE (%) ([1]; mRNA encoding anti-HA antibody (Table 33)) | hEPO concentrations compared with MC3 formulations at each time point (mice [3]; 0.5 mpk, 3, 6 and 24 hours) |
| --- | --- | --- | --- | --- | --- | --- | --- | --- | --- | --- | --- | --- | --- | --- |
| CCCCCC=CCC=CCCCCCCCCC(CCCCCCCCC=CCC=CCCCCC)OC(=O)CCCN(C)C (stereo not shown) [MC3, heptatriaconta-6,9,28,31-tetraen-19-yl 4-(dimethylamino)butanoate, reference compound] | 99.01% | 97.22% | 97.3% | 124.42 | 504.90 | 19.85 pg/mL | 117.94 pg/mL | 1.57e+06 pg/mL | 1.83e+06 pg/mL | 810000 pg/mL | 77.05 µg·h/mL | 235.7 µg·h/mL |  |  |
| CCCCCCCCCCCOC(=O)CCCCCN(CCO)CCCCCCCC(=O)OC(CCCCCCCC)CCCCCCCC [Compound 25, Heptadecan-9-yl 8-((2-hydroxyethyl)(6-oxo-6-(undecyloxy)hexyl)amino)octanoate] |  |  |  | 233.45 | 1194.13 |  |  |  |  |  |  |  |  |  |
| CCCCCCCCCOC(=O)CCCCCCCN(CCO)CCCCCCCC(=O)OC(CCCCCCCC)CCCCCCCC [Compound 18, Heptadecan-9-yl 8-((2-hydroxyethyl)(8-(nonyloxy)-8-oxooctyl)amino)octanoate] |  | 97.34% |  | 78.76 |  | 10.16 pg/mL | 299.93 pg/mL | 3e+06 pg/mL | 3.38e+06 pg/mL | 1.8e+06 pg/mL | 354.3 µg·h/mL | 1055 µg·h/mL | 79.3% | higher hEPO concentrations than MC3 formulations |
